In the assay the target is T1, glutathione S-transferase (GST)-linked full-length human Syk protein (Homo sapiens, UniProt P43405).
T1 construct: glutathione S-transferase (GST)-linked full-length human Syk protein; purchased Carna Biosciences; host or cells: Baculovirus expression system
The experiment in a line: Syk enzyme assay. The format is biochemical. The note with it: 0.83 nM Syk, time-resolved fluorescence; read-out: IC50 of Syk-inhibitory activity. Summed up:
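Phosphotyrosine on a biotin-peptide substrate (0.5 μM) was read by time-resolved fluorescence at 615 and 665 nm with Eu-anti-pTyr antibody and APC-streptavidin after 1 h EDTA stop.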

The values below come from US9051310B2, “Nicotinamide derivative or salt thereof” (FUJIFILM Corporation, priority 2011, dated 2015).

A word on the IC50: it is the concentration at which inhibition is half-maximal.

On to `CCC[C@@H](Nc1nc(Nc2cnc(N3CCOCC3)c(F)c2)c(C(N)=O)cc1F)[C@H](C)N` [Example 2-260, 6-(((2S,3R)-2-aminohexan-3-yl)amino)-5-fluoro-2-((5-fluoro-6-morpholinopyridin-3-yl)amino)nicotinamide], for which the IC50 is 10 to 50 nM.
With `Cc1nn(C)c2ncc(Nc3nc(N[C@H](CC(C)C)[C@H](C)N)c(F)cc3C(N)=O)cc12` [Example 2-245, 6-(((2S,3R)-2-amino-5-methylhexan-3-yl)amino)-2-((1,3-dimethyl-1H-pyrazolo[3,4-b]pyridin-5-yl)amino)-5-fluoronicotinamide], the IC50 is less than 10 nM.
The value for `COc1ncc(Nc2nc(N[C@H](C3CCC3)[C@H](C)N)c(F)cc2C(N)=O)cc1F` [Example 2-63, 6-(((1R,2S)-2-amino-1-cyclobutylpropyl)amino)-5-fluoro-2-((5-fluoro-6-methoxypyridin-3-yl)amino)nicotinamide.] was 10 to 50 nM; that for `COc1nn(C)c2c(F)cc(Nc3nc(N[C@H](C4CC4)[C@H](C)N)c(F)cc3C(N)=O)cc12` [Example 2-154, 6-(((1R,2S)-2-amino-1-cyclopropylpropyl)amino)-5-fluoro-2-((7-fluoro-3-methoxy-1-methyl-1H-indazol-5-yl)amino)nicotinamide] was less than 10 nM; that for `COc1ncc(Nc2nc(N[C@H](c3ccccc3)[C@H](C)N)c(F)cc2C(N)=O)cc1-n1ccnn1` [Example 2-336, 6-(((1R,2S)-2-amino-1-phenylpropyl)amino)-5-fluoro-2-((6-methoxy-5-(1H-1,2,3-triazol-1-yl)pyridin-3-yl)amino)nicotinamide] was less than 10 nM.
As to `Cc1ncc(Nc2nc(N[C@H](c3ccccn3)[C@H](C)N)c(F)cc2C(N)=O)cc1-n1nccn1` [Example 2-403, 6-(((1S,2S)-2-amino-1-(pyridin-2-yl)propyl)amino)-5-fluoro-2-((6-methyl-5-(2H-1,2,3-triazol-2-yl)pyridin-3-yl)amino)nicotinamide], the IC50 lay within 10 to 50 nM.
For the compound `CN(C)c1nn(C)c2ccc(Nc3nc(N[C@@H]4CCOC[C@@H]4N)c(F)cc3C(N)=O)cc12` [Example 2-212, 6-(((3R,4R)-3-aminotetrahydro-2H-pyran-4-yl)amino)-2-((3-(dimethylamino)-1-methyl-1H-indazol-5-yl)amino)-5-fluoronicotinamide], the IC50 was less than 10 nM.
For `CC[C@@H](Nc1nc(Nc2ccc3[nH]nc(NC)c3c2)c(C(N)=O)cc1F)[C@H](C)N` [Example 2-489, 6-(((2S,3R)-2-aminopentan-3-yl)amino)-5-fluoro-2-((3-(methylamino)-1H-indazol-5-yl)amino)nicotinamide] the value was 10 to 50 nM.
The value for `C[C@H](N)[C@H](Nc1nc(Nc2ccc(F)c(F)c2)c(C(N)=O)cc1F)C1CC1` [Example 2-59, 6-(((1R,2S)-2-amino-1-cyclopropylpropyl)amino)-2-((3,4-difluorophenyl)amino)-5-fluoronicotinamide] was 10 to 50 nM; that for `CC[C@H](N)[C@H](Nc1nc(Nc2cc(OC)cc(OC)c2)c(C(N)=O)cc1F)C1CC1` [Example 2-361, 6-(((1R,2S)-2-amino-1-cyclopropylbutyl)amino)-2-((3,5-dimethoxyphenyl)amino)-5-fluoronicotinamide] was 10 to 50 nM; that for `CC[C@H](N)[C@@H](C)Nc1nc(Nc2cncc3c2cnn3CC(F)F)c(C(N)=O)cc1F` [Example 2-402, 6-(((2R,3S)-3-aminopentan-2-yl)amino)-2-((1-(2,2-difluoroethyl)-1H-pyrazolo[3,4-c]pyridin-4-yl)amino)-5-fluoronicotinamide] was less than 10 nM.
The value for `C[C@H](N)[C@H](Nc1nc(Nc2ccc3c(c2)c(OC(F)F)nn3C)c(C(N)=O)cc1F)C1CCC1` [Example 2-350, 6-(((1R,2S)-2-amino-1-cyclobutylpropyl)amino)-2-((3-(difluoromethoxy)-1-methyl-1H-indazol-5-yl)amino)-5-fluoronicotinamide] was less than 10 nM.
`CC[C@@H](Nc1nc(Nc2ccc3c(c2)c(NCCOC)nn3CCOC)c(C(N)=O)cc1F)[C@H](C)N` [Example 2-536, 6-(((2S,3R)-2-aminopentan-3-yl)amino)-5-fluoro-2-((1-(2-methoxyethyl)-3-((2-methoxyethyl)amino)-1H-indazol-5-yl)amino)nicotinamide]: the IC50 lay within 10 to 50 nM.
Consider `C[C@H](N)[C@H](Nc1nc(Nc2ccc3c(c2)c(N(C)C)nn3C)c(C(N)=O)cc1F)c1ccc(F)c(F)c1` [Example 2-553, 6-(((1R,2S)-2-amino-1-(3,4-difluorophenyl)propyl)amino)-2-((3-(dimethylamino)-1-methyl-1H-indazol-5-yl)amino)-5-fluoronicotinamide], for which the IC50 was less than 10 nM.
The value for `COCCn1nc(OC(F)F)c2cc(Nc3nc(N[C@H](C4CC4)[C@H](C)N)c(F)cc3C(N)=O)ccc21` [Example 2-176, 6-(((1R,2S)-2-amino-1-cyclopropylpropyl)amino)-2-((3-(difluoromethoxy)-1-(2-methoxyethyl)-1H-indazol-5-yl)amino)-5-fluoronicotinamide] was less than 10 nM; that for `Cc1ncc(Nc2nc(N[C@@H](CN)Cc3ccccc3)c(F)cc2C(N)=O)cc1-n1nccn1` [Example 2-364, (R)-6-((1-amino-3-phenylpropan-2-yl)amino)-5-fluoro-2-((6-methyl-5-(2H-1,2,3-triazol-2-yl)pyridin-3-yl)amino)nicotinamide] was 50 to 100 nM.
`Cc1nn(-c2cncc(Nc3nc(N[C@H]4CCCC[C@H]4N)c(F)cc3C(N)=O)c2)nc1C` (stereo in doubt) [Example 2-533, 6-(((1S,2R)-2-aminocyclohexyl)amino)-2-((5-(4,5-dimethyl-2H-1,2,3-triazol-2-yl)pyridin-3-yl)amino)-5-fluoronicotinamide]: the IC50 was 50 to 100 nM.
As to `COCCn1nc(OC(F)F)c2cc(Nc3nc(N[C@H](CC(C)C)[C@H](C)N)c(F)cc3C(N)=O)ccc21` [Example 2-177, 6-(((2S,3R)-2-amino-5-methylhexan-3-yl)amino)-2-((3-(difluoromethoxy)-1-(2-methoxyethyl)-1H-indazol-5-yl)amino)-5-fluoronicotinamide], the IC50 is less than 10 nM.
As to `COCCn1nc(N(C)C)c2cc(Nc3nc(N[C@@H]4CCCC[C@@H]4N)c(F)cc3C(N)=O)ccc21` [Example 2-500, 6-(((1R,2S)-2-aminocyclohexyl)amino)-2-((3-(dimethylamino)-1-(2-methoxyethyl)-1H-indazol-5-yl)amino)-5-fluoronicotinamide], the IC50 lay in the range of 10 to 50 nM.
For `COCCOc1ncc(Nc2nc(N[C@H](C3CC3)[C@H](C)N)c(F)cc2C(N)=O)cc1F` [Example 2-115, 6-(((1R,2S)-2-amino-1-cyclopropylpropyl)amino)-5-fluoro-2-((5-fluoro-6-(2-methoxyethoxy)pyridin-3-yl)amino)nicotinamide] the value was 10 to 50 nM; for `CC[C@H](N)[C@H](Nc1nc(Nc2ccnc(OCCOC)c2)c(C(N)=O)cc1F)C1CC1` [Example 2-360, 6-(((1R,2S)-2-amino-1-cyclopropylbutyl)amino)-5-fluoro-2-((2-(2-methoxyethoxy)pyridin-4-yl)amino)nicotinamide], 10 to 50 nM.
For `COc1cc(Nc2nc(N[C@H](C3CCC3)[C@H](C)N)c(F)cc2C(N)=O)ccc1C` [Example 2-30, 6-(((1R,2S)-2-amino-1-cyclobutylpropyl)amino)-5-Fluoro-2-((3-methoxy-4-methylphenyl)amino)nicotinamide] the value was less than 10 nM.
For `CC[C@H](N)[C@@H](C)Nc1nc(Nc2ccc3c(c2)c(NC)nn3C)c(C(N)=O)cc1F` [Example 2-499, 6-(((2R,3S)-3-aminopentan-2-yl)amino)-5-fluoro-2-((1-methyl-3-(methylamino)-1H-indazol-5-yl)amino)nicotinamide] the value was 10 to 50 nM; for `CCCC[C@@H](Nc1nc(Nc2cnc(N3CCOCC3)c(F)c2)c(C(N)=O)cc1F)[C@H](C)N` [Example 2-262, 6-(((2S,3R)-2-aminoheptan-3-yl)amino)-5-fluoro-2-((5-fluoro-6-morpholinopyridin-3-yl)amino)nicotinamide], 10 to 50 nM.
In the case of `CC[C@H](N)[C@@H](C)Nc1nc(Nc2ccc3c(c2)c(OC(F)F)nn3CCOC)c(C(N)=O)cc1F` [Example 2-544, 6-(((2R,3S)-3-aminopentan-2-yl)amino)-2-((3-(difluoromethoxy)-1-(2-methoxyethyl)-1H-indazol-5-yl)amino)-5-fluoronicotinamide], the IC50 lay in the range of 10 to 50 nM.
`COCCOc1ncc(Nc2nc(N[C@H](C3CCC3)[C@H](C)N)c(F)cc2C(N)=O)cc1-n1nccn1` [Example 2-165, 6-(((1R,2S)-2-amino-1-cyclobutylpropyl)amino)-5-fluoro-2-((6-(2-methoxyethoxy)-5-(2H-1,2,3-triazol-2-yl)pyridin-3-yl)amino)nicotinamide]: the IC50 was 10 to 50 nM.
The value for `Cc1cnn(-c2cncc(Nc3nc(N[C@@H](CN)CC(C)C)c(F)cc3C(N)=O)c2)c1` [Example 2-524, (R)-6-((1-amino-4-methylpentan-2-yl)amino)-5-fluoro-2-((5-(4-methyl-1H-pyrazol-1-yl)pyridin-3-yl)amino)nicotinamide] was less than 10 nM; that for `CNc1n[nH]c2ccc(Nc3nc(N[C@@H]4CCCC[C@@H]4N)c(F)cc3C(N)=O)cc12` [Example 2-488, 6-(((1R,2S)-2-aminocyclohexyl)amino)-5-fluoro-2-((3-(methylamino)-1H-indazol-5-yl)amino)nicotinamide] was less than 10 nM.
For `COCCN(C)c1nn(C)c2ccc(Nc3nc(N[C@@H]4CCOC[C@@H]4N)c(F)cc3C(N)=O)cc12` [Example 2-457, 6-(((3R,4R)-3-aminotetrahydro-2H-pyran-4-yl)amino)-5-fluoro-2-((3-((2-methoxyethyl)(methyl)amino)-1-methyl-1H-indazol-5-yl)amino)nicotinamide] the value was less than 10 nM.
